US12528838B2, “Cyclic dominant negative competence stimulating peptide analogs and methods of treating Streptococcus pneumoniae infections” (priority 2019, dated 2026)
Square brackets hold non-standard residues; d marks the D form. Peptide text beside a SMILES is read from it.

Experiments:
[1] = Proteolytic stability in trypsin/chymotrypsin solution, monitored by RP-HPLC; assay type: in vitro ADME; settings: in vitro, FIG. 14A, read-out: half-life (converted)
Method: FIG. 4E. […] All peptides were treated with trypsin/chymotrypsin (0.05 μg mL-1 enzyme concentration). RP-HPLC was used to monitor the progress of degradation. All peptides have a half-life about 3 hours. After 3 to 4 hours, some degradation product of CSP1-cyc-E1A(Dap6E10) start to precipitate out, resulting in the plateau in the curve.
(§1) FIGS. 14A-14D. Pharmacological properties of dnCSPs. (FIG. 14A) CSPs were treated with trypsin/chymotrypsin and their degradation monitored by HPLC. (FIG. 14B) CD1 mice (3/cohort, males & females) were intratracheally instilled 400 μg of native or dnCSPs. Mice were bronchial alveolar lavaged (BAL) at indicated times, and cell free BAL fluid (BALF) were analyzed by HPLC. […] (FIGS. 14C-14D) CD1 mice (5/cohorts, males & females) were intratracheally inoculated with MTD doses of native and dnCSPs (200 μg-20 mg/kg). […] Lung sections (FIGS. 14C-14D) and other organs were H&E stained. b=bronchioles; v=vessels.
The proteolytic stability of CSP1-E1A-cyc(Dap6E10) in Trypsin and Chymotrypsin solution was tested and the half-life measured. […] To test that, CSP1-E1A-des-K16K17-cyc(Dap6E10) was manually synthesized and evaluated its activity.
Pharmacological evaluation of lead cyclic dnCSPs. Before moving the most promising dnCSPs into mouse models, their pharmacological properties will be evaluated. As these are peptide-based drugs, first assessed are their metabolic stability. These assays will include prolonged incubation in physiologically-relevant buffers with varying pH values, stability towards degradation by trypsin and chymotrypsin, and stability in mouse lungs, plasma and serum to simulate in vivo proteolytic environments. Degradation of dnCSPs will be quantified using HPLC. […] The MTD will be defined as the maximum dose that causes a 15% loss of initial weight. […] Systemic toxicity will be assessed by performing blood chemistry and complete blood count (CBC) with differential. Major organs (e.g., liver, kidney, heart, lung, etc.) and sternum (to test genotoxicity) will be collected for histopathological and toxicological analysis. […]

[2] = Stability in mouse lungs (BAL fluid analysed by HPLC after intratracheal instillation); assay type: in vivo, CD1 mice; settings: both sexes, CD1, cell-free bronchoalveolar lavage fluid (BALF), inhaled or intranasal, 400 ug, 400 μg intratracheally, FIG. 14B
Method: as §1

ComD2 receptor = ComD2 receptor (Streptococcus pneumoniae serotype 4, UniProt A0A0H2US84); experiment: cell-based; assay type: cell-based
Sequence of ComD2 receptor (A0A0H2US84 entry or part of it): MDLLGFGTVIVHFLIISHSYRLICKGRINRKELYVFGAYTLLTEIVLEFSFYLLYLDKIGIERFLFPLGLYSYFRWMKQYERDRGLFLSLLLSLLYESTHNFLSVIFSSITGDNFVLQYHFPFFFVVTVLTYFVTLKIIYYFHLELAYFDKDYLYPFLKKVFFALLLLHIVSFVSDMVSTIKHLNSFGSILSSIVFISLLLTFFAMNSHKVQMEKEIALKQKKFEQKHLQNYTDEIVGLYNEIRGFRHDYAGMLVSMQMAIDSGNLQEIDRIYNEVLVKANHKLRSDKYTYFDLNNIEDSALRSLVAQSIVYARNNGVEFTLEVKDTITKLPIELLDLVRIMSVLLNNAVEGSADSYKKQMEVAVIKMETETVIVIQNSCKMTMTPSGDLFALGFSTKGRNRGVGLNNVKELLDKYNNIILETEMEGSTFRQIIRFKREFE
Excerpt: Biological evaluation of cyclic dnCSPs. […] All assays will be performed in triplicates and independently three times. Serial dilutions of dnCSPs will be conducted to determine the EC50 and IC50 values of promising dnCSPs through initial screening. Data from reporter assays will be analyzed using the GraphPad Prism software. The lead dnCSPs will be assessed for their therapeutic potential using multiple in vitro assays, including attenuation of ComX-induction (reporter systems), genetic transformation, allolysis (zymogram assays), and release of PLY (hemolysis & Western blots). Lastly, the pneumococcal competence system regulates biofilm formation, which is important for the pathogenesis of […]. The ability of the dnCSPs to inhibit biofilm formation will be evaluated after 24 hr of growth on 1% BSA coated coverslips placed in flat-bottom polystyrene tissue culture plates by staining with FilmTracer LIVE/DEAD Biofilm viability kit (Invitrogen, L10316), and visualized using a confocal microscope and Z-stacked to construct 3D-images.

| SMILES | half-life [1] [h] | half-life [2] [h] | IC50 (ComD2 receptor) [µM] |
| --- | --- | --- | --- |
| CC[C@H](C)[C@H](NC(=O)[C@H](Cc1ccccc1)NC(=O)[C@H](CC(=O)O)NC(=O)[C@H](CCCNC(=N)N)NC(=O)[C@H](Cc1ccccc1)NC(=O)[C@H](Cc1ccccc1)NC(=O)[C@H](CCCCN)NC(=O)[C@H](CO)NC(=O)[C@H](CC(C)C)NC(=O)[C@H](CCCNC(=N)N)NC(=O)[C@H](CCSC)NC(=O)[C@H](C)N)C(=O)N[C@@H](CC(C)C)C(=O)N[C@@H](CCC(N)=O)C(=O)N[C@@H](CCCNC(=N)N)C(=O)N[C@@H](CCCCN)C(=O)N[C@@H](CCCCN)C(=O)O [CSP1-E1A, A-M-R-L-S-K-F-F-R-D-F-I-L-Q-R-K-K] | 1.5 | 1.5 | > 10 |
| CC[C@H](C)[C@H](NC(=O)[C@H](CCCNC(=N)N)NC(=O)[C@H](CCSC)NC(=O)[C@H](C)N)C(=O)N[C@@H](CO)C(=O)N[C@@H](CCCNC(=N)N)C(=O)N[C@H](C(=O)N[C@H](C(=O)N[C@@H](CC(C)C)C(=O)N[C@H](CC(=O)O)C(=O)N[C@@H](Cc1ccccc1)C(=O)N[C@@H](CC(C)C)C(=O)N[C@@H](Cc1ccccc1)C(=O)N[C@@H](CC(C)C)C(=O)N[C@@H](CCCNC(=N)N)C(=O)N[C@@H](CCCCN)C(=O)N[C@@H](CCCCN)C(=O)O)[C@@H](C)CC)[C@@H](C)CC [CSP2-E1Ad10, A-M-R-I-S-R-I-I-L-d-F-L-F-L-R-K-K] (H-AMRISRIIL[dD]FLFLRKK-OH; N-terminus and C-terminus assumed) | > 3 | > 3 | – |
